Experiments:
Test in all cases: Caliper, Mobility shift assay off-chip
[1] = target: MARK4 (human) (UniProt Q96L34)
[2] = system: FGFR3 (human), P22607 [K650E]
[3] = target: DYRK3 (human) (UniProt O43781)
[4] = target: DYRK4 (human) (UniProt Q9NR20)
[5] = target: EPHB1 (human) (UniProt P54762)
[6] = target: FRK (human) (UniProt P42685)
[7] = target: ALK (human) (UniProt Q9UM73)
[8] = target: JAK2 JH1 JH2 (human) (UniProt O60674)
[9] = target: PRKCI (human) (UniProt P41743)
[10] = target: ITK (human) (UniProt Q08881)
[11] = target: HIPK2 (human) (UniProt Q9H2X6)
[12] = target: CDK1 (human) (UniProt P06493)
[13] = system: PDGFRA (human), P16234 [V561D]
[14] = target: CLK2 (human) (UniProt P49760)
[15] = target: EPHA8 (human) (UniProt P29322)
[16] = target: ROS1 (human) (UniProt P08922)
[17] = target: AXL (human) (UniProt P30530)
[18] = target: PRKAA2 PRKAB1 PRKAG1 (human) (UniProt Q9Y478+P54646+P54619)
[19] = target: RPS6KA6 KD1 KD2 (human) (UniProt Q9UK32)
[20] = target: MELK (human) (UniProt Q14680)
[21] = target: MERTK (human) (UniProt Q12866)
[22] = target: MST1R (human) (UniProt Q04912)
[23] = target: TYRO3 (human) (UniProt Q06418)
[24] = target: NTRK3 (human) (UniProt Q16288)
[25] = target: CDK5 CDK5R1 p25 (human) (UniProt Q15078+Q00535)
[26] = target: CSNK1G3 (human) (UniProt Q9Y6M4)
[27] = target: DAPK1 (human) (UniProt P53355)
[28] = target: KIT (human) (UniProt P10721)
[29] = target: DCLK1 (human) (UniProt O15075)
[30] = target: TXK (human) (UniProt P42681)
[31] = system: RET (human), P07949 [Y791F]
[32] = target: PHKG2 (human) (UniProt P15735)
[33] = target: CSNK1G2 (human) (UniProt P78368)
Chain of CSNK1G2 (human) (P78368 whole entry, looked up): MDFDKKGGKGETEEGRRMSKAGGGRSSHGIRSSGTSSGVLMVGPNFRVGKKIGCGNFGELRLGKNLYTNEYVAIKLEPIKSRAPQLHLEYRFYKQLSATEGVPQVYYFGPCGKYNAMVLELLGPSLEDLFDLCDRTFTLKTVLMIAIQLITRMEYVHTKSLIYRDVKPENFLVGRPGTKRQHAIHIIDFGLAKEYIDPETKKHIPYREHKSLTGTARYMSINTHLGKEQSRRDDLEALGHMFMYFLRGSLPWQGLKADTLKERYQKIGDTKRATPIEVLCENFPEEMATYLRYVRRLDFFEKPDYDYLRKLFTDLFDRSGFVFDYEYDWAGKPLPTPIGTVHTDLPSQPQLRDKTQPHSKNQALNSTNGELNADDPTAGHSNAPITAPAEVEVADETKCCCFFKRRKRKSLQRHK

Chain of TYRO3 (human) (Q06418 whole entry, looked up): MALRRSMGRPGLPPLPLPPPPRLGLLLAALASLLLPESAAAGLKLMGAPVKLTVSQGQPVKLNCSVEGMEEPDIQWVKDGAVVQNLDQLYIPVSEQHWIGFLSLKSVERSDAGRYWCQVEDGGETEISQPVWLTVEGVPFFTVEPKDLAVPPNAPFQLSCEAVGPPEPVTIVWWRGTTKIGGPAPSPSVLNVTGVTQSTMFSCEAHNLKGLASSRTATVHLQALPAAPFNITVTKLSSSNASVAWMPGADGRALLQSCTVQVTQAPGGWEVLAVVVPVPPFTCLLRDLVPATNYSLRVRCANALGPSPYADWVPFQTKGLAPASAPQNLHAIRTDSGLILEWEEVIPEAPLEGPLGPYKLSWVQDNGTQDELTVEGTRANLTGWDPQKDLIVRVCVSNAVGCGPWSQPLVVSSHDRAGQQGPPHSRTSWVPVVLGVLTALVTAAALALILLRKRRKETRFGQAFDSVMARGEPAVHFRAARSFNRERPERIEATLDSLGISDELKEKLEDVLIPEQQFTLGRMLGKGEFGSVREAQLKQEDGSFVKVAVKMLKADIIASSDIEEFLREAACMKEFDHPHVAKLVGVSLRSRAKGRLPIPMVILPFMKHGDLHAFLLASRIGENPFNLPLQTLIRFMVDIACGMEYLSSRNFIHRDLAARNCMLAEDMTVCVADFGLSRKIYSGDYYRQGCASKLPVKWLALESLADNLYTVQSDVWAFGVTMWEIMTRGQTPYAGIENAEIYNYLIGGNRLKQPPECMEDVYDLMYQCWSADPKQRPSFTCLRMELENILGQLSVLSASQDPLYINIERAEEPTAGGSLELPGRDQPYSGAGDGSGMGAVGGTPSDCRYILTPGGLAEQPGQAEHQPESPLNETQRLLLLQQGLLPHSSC
Chain of TXK (human) (P42681 whole entry, looked up): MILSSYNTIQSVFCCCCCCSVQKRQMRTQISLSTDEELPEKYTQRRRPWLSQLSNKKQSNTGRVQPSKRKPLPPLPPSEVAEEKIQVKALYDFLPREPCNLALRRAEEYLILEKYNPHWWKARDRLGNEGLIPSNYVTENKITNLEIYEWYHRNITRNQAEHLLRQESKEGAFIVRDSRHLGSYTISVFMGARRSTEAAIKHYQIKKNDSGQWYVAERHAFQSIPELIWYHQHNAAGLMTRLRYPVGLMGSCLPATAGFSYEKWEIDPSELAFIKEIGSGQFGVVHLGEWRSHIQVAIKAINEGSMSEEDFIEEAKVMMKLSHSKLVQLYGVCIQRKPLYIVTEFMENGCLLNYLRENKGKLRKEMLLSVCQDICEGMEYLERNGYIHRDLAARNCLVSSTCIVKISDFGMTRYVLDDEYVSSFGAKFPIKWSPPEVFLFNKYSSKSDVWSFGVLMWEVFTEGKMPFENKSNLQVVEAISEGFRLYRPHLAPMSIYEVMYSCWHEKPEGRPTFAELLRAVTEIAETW
Chain of ITK (human) (Q08881 whole entry, looked up): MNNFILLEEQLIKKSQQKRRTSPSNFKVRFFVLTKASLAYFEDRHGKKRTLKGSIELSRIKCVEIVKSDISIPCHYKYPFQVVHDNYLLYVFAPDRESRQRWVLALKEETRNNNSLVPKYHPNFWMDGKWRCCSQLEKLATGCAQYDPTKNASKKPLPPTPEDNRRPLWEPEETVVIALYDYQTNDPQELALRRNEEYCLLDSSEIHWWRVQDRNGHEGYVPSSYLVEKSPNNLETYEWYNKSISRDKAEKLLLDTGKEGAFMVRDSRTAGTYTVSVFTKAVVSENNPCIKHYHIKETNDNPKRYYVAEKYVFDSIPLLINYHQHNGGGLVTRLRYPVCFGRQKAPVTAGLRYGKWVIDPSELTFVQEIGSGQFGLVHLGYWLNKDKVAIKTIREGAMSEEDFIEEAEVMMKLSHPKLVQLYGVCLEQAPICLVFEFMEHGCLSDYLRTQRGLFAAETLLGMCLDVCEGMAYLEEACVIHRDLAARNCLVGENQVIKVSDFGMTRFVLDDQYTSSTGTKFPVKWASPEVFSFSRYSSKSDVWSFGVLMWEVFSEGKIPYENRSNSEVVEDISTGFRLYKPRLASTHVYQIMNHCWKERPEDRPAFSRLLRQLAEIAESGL
Chain of MARK4 (human) (Q96L34 whole entry, looked up): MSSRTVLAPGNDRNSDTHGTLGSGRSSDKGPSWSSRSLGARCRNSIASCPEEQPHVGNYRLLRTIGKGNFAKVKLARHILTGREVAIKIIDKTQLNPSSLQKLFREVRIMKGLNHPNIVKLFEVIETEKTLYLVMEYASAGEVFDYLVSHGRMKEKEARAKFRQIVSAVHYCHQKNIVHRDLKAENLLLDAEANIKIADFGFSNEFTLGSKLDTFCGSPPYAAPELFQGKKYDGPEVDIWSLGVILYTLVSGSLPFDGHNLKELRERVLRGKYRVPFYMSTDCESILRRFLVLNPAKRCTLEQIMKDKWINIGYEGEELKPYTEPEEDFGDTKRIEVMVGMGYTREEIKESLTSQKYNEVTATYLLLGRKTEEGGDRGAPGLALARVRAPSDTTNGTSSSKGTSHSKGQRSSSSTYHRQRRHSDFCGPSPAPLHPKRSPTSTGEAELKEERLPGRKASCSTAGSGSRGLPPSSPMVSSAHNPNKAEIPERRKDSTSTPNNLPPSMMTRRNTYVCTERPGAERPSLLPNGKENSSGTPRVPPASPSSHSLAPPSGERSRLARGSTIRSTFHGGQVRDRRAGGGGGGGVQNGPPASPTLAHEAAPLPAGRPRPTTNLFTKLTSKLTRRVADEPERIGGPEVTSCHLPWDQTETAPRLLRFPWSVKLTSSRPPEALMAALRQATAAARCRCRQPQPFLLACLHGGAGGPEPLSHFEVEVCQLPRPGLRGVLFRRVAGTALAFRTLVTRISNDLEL
Chain of RPS6KA6 KD1 KD2 (human) (Q9UK32 whole entry, looked up): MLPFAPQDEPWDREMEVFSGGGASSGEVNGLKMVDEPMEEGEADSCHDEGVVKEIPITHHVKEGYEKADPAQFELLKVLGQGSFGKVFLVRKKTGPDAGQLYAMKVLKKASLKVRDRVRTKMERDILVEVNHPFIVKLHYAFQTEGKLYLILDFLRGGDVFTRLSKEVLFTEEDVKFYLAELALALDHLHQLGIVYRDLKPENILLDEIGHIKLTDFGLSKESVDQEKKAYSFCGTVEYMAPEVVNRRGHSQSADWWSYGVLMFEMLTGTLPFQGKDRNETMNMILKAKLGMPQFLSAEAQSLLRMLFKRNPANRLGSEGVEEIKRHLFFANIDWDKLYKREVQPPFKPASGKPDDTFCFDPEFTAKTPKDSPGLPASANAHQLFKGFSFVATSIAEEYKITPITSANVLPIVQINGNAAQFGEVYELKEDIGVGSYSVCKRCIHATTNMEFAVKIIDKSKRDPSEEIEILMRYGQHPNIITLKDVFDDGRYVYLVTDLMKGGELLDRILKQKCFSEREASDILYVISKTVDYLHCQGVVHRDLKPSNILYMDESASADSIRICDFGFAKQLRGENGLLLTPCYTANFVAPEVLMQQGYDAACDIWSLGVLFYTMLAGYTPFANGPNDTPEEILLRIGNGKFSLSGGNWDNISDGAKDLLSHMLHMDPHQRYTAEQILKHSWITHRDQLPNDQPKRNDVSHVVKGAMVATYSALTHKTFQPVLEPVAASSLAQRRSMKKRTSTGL
Chain of CLK2 (human) (P49760 whole entry, looked up): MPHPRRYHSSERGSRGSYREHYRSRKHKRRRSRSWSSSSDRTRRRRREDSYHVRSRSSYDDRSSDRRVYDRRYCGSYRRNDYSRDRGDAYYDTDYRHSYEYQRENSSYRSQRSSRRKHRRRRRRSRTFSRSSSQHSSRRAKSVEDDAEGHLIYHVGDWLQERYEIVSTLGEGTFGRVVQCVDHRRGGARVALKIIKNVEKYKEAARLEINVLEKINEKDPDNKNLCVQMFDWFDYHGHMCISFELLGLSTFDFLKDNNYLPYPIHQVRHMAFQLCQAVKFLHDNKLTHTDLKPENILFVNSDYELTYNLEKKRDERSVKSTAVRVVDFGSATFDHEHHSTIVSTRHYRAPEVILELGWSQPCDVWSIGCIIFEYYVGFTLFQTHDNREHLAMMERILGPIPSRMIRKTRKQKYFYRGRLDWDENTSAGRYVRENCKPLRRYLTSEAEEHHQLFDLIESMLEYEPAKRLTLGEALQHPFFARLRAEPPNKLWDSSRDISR
Chain of CDK1 (human) (P06493 whole entry, looked up): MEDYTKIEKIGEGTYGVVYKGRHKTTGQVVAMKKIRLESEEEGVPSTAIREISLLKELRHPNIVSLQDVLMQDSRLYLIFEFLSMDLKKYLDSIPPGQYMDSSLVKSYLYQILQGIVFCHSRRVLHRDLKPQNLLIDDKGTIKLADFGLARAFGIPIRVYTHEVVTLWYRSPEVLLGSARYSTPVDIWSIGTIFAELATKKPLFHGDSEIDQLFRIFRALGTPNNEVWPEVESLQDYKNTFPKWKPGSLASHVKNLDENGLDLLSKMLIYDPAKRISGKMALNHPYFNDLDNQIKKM

Work on `O=C(CCc1ccc2ccc3ncc(C4CCNCC4)cc3c(=O)c2c1)NCc1ccccn1` yielded an inhibition ([1]; compound 0.1 µM) of 0%, an inhibition ([1]; compound 1.0 µM) of -3.4% and an inhibition ([2]; compound 0.1 µM) of -1.7%. For the same compound, the inhibition ([2]; compound 1.0 µM) was 2.1%, the inhibition ([3]; compound 0.1 µM) was -1.4% and the inhibition ([3]; compound 1.0 µM) was 2.9%. The inhibition ([4]; compound 0.1 µM) was 1.8%, the inhibition ([4]; compound 1.0 µM) was 0.5% and the inhibition ([5]; compound 0.1 µM) was 1%. The inhibition ([5]; compound 1.0 µM) was 3.3%, the inhibition ([6]; compound 0.1 µM) was 7.1% and the inhibition ([6]; compound 1.0 µM) was 6.2%. For the same compound, the inhibition ([7]; compound 0.1 µM) was 6.9%, the inhibition ([7]; compound 1.0 µM) was -9.5% and the inhibition ([8]; compound 0.1 µM) was -2.8%. For the same compound, the inhibition ([8]; compound 1.0 µM) was 5.9%, the inhibition ([9]; compound 0.1 µM) was -0.6% and the inhibition ([9]; compound 1.0 µM) was 1.4%. For the same compound, the inhibition ([10]; compound 0.1 µM) was -5%, the inhibition ([10]; compound 1.0 µM) was -1.8% and the inhibition ([11]; compound 0.1 µM) was 3.6%. It also gave an inhibition ([11]; compound 1.0 µM) of 3.9%, an inhibition ([12]; compound 0.1 µM) of -3.9% and an inhibition ([12]; compound 1.0 µM) of 1.2%. It also gave an inhibition ([13]; compound 0.1 µM) of -12.5%, an inhibition ([13]; compound 1.0 µM) of 21.5% and an inhibition ([14]; compound 0.1 µM) of 3.4%. It also gave an inhibition ([14]; compound 1.0 µM) of 4.1%, an inhibition ([15]; compound 0.1 µM) of 9.4% and an inhibition ([15]; compound 1.0 µM) of 5.1%. It also gave an inhibition ([16]; compound 0.1 µM) of 5.1%, an inhibition ([16]; compound 1.0 µM) of -12.4% and an inhibition ([17]; compound 0.1 µM) of 6.1%. For the same compound, the inhibition ([17]; compound 1.0 µM) was 20.3%, the inhibition ([18]; compound 0.1 µM) was 5.1% and the inhibition ([18]; compound 1.0 µM) was -1.5%. For the same compound, the inhibition ([19]; compound 0.1 µM) was 5.9%, the inhibition ([19]; compound 1.0 µM) was -8.4% and the inhibition ([20]; compound 0.1 µM) was 2.7%. It also gave an inhibition ([20]; compound 1.0 µM) of 5.7%, an inhibition ([21]; compound 0.1 µM) of 2.5% and an inhibition ([21]; compound 1.0 µM) of 15.5%. It also gave an inhibition ([22]; compound 0.1 µM) of -3.6%, an inhibition ([22]; compound 1.0 µM) of 20.5% and an inhibition ([23]; compound 0.1 µM) of 4.1%. It also gave an inhibition ([23]; compound 1.0 µM) of 4.2%, an inhibition ([24]; compound 0.1 µM) of 6% and an inhibition ([24]; compound 1.0 µM) of 10.4%. The inhibition ([25]; compound 0.1 µM) was 2.2%, the inhibition ([25]; compound 1.0 µM) was 0.3% and the inhibition ([26]; compound 0.1 µM) was 0.3%. It also gave an inhibition ([26]; compound 1.0 µM) of 15.2%, an inhibition ([27]; compound 0.1 µM) of 2.4% and an inhibition ([27]; compound 1.0 µM) of 0.1%. It also gave an inhibition ([28]; compound 0.1 µM) of -1.6%, an inhibition ([28]; compound 1.0 µM) of 6.6% and an inhibition ([29]; compound 0.1 µM) of -26.1%. It also gave an inhibition ([29]; compound 1.0 µM) of -5.4%, an inhibition ([30]; compound 0.1 µM) of -5.1% and an inhibition ([30]; compound 1.0 µM) of -9.7%. It also gave an inhibition ([31]; compound 0.1 µM) of 1.1%, an inhibition ([31]; compound 1.0 µM) of 2.7% and an inhibition ([32]; compound 0.1 µM) of 1%. It also gave an inhibition ([32]; compound 1.0 µM) of -4.4%, an inhibition ([33]; compound 0.1 µM) of 2.7% and an inhibition ([33]; compound 1.0 µM) of 5.8%.

For `CN(c1ccc2ccc3ncc(-c4cnn(C)c4)cc3c(=O)c2c1)S(=O)(=O)NCc1ccccn1`, the inhibition ([1]; compound 0.1 µM) was 7.3%, the inhibition ([1]; compound 1.0 µM) was 16% and the inhibition ([2]; compound 0.1 µM) was 15.1%. The inhibition ([2]; compound 1.0 µM) was 59.4%, the inhibition ([3]; compound 0.1 µM) was 9.6% and the inhibition ([3]; compound 1.0 µM) was 21.5%. It also gave an inhibition ([4]; compound 0.1 µM) of 16.9%, an inhibition ([4]; compound 1.0 µM) of 1.3% and an inhibition ([5]; compound 0.1 µM) of 1.8%. For the same compound, the inhibition ([5]; compound 1.0 µM) was 9.7%, the inhibition ([6]; compound 0.1 µM) was 1% and the inhibition ([6]; compound 1.0 µM) was 8%. The inhibition ([7]; compound 0.1 µM) was -0.1%, the inhibition ([7]; compound 1.0 µM) was 12.2% and the inhibition ([8]; compound 0.1 µM) was -35.1%. The inhibition ([8]; compound 1.0 µM) was 41.2%, the inhibition ([9]; compound 0.1 µM) was 3.9% and the inhibition ([9]; compound 1.0 µM) was -0.5%. It also gave an inhibition ([10]; compound 0.1 µM) of 7%, an inhibition ([10]; compound 1.0 µM) of 34.9% and an inhibition ([11]; compound 0.1 µM) of 8.7%. For the same compound, the inhibition ([11]; compound 1.0 µM) was 14.7%, the inhibition ([12]; compound 0.1 µM) was 1.3% and the inhibition ([12]; compound 1.0 µM) was 4.7%. The inhibition ([13]; compound 0.1 µM) was 16.9%, the inhibition ([13]; compound 1.0 µM) was 61.1% and the inhibition ([14]; compound 0.1 µM) was 3.2%. The inhibition ([14]; compound 1.0 µM) was 16.8%, the inhibition ([15]; compound 0.1 µM) was -1.9% and the inhibition ([15]; compound 1.0 µM) was 4.6%. For the same compound, the inhibition ([16]; compound 0.1 µM) was 1%, the inhibition ([16]; compound 1.0 µM) was 12% and the inhibition ([17]; compound 0.1 µM) was 30.6%. The inhibition ([17]; compound 1.0 µM) was 77.3%, the inhibition ([18]; compound 0.1 µM) was 3.4% and the inhibition ([18]; compound 1.0 µM) was 17.6%. For the same compound, the inhibition ([19]; compound 0.1 µM) was 0.5%, the inhibition ([19]; compound 1.0 µM) was 5.6% and the inhibition ([20]; compound 0.1 µM) was 11.5%. The inhibition ([20]; compound 1.0 µM) was 45.5%, the inhibition ([21]; compound 0.1 µM) was 52.7% and the inhibition ([21]; compound 1.0 µM) was 94.5%. For the same compound, the inhibition ([22]; compound 0.1 µM) was 23.8%, the inhibition ([22]; compound 1.0 µM) was 78.2% and the inhibition ([23]; compound 0.1 µM) was 20.2%. It also gave an inhibition ([23]; compound 1.0 µM) of 66.3%, an inhibition ([24]; compound 0.1 µM) of 39.3% and an inhibition ([24]; compound 1.0 µM) of 83.6%. It also gave an inhibition ([25]; compound 0.1 µM) of -5.4%, an inhibition ([25]; compound 1.0 µM) of 11.9% and an inhibition ([26]; compound 0.1 µM) of 9.7%. It also gave an inhibition ([26]; compound 1.0 µM) of 6.5%, an inhibition ([27]; compound 0.1 µM) of 3% and an inhibition ([27]; compound 1.0 µM) of 9.2%. It also gave an inhibition ([28]; compound 0.1 µM) of -0.2%, an inhibition ([28]; compound 1.0 µM) of 8.9% and an inhibition ([29]; compound 0.1 µM) of 3.5%. The inhibition ([29]; compound 1.0 µM) was 5.9%, the inhibition ([30]; compound 0.1 µM) was 0.6% and the inhibition ([30]; compound 1.0 µM) was 19%. The inhibition ([31]; compound 0.1 µM) was 10.2%, the inhibition ([31]; compound 1.0 µM) was 43.4% and the inhibition ([32]; compound 0.1 µM) was 17.8%. The inhibition ([32]; compound 1.0 µM) was 12.7%, the inhibition ([33]; compound 0.1 µM) was -9% and the inhibition ([33]; compound 1.0 µM) was 1.2%.
